From patent publication US12152038B2, “Vasopressin receptor antagonists and products and methods related thereto” (Neumora Therapeutics, Inc., priority 2017, dated 2024) come the findings set out here.

Where only a bound is given, the exact number is not on record here.

This test deals with T1, human Arginine Vasopressin Receptor 1a (AVPR1a) (Homo sapiens, UniProt P37288).
T1 construct: expressed in transfected cells; host or cells: CHO (CHO-AVPR1a, kept under G418 selection)
T1 sequence (P37288 whole entry): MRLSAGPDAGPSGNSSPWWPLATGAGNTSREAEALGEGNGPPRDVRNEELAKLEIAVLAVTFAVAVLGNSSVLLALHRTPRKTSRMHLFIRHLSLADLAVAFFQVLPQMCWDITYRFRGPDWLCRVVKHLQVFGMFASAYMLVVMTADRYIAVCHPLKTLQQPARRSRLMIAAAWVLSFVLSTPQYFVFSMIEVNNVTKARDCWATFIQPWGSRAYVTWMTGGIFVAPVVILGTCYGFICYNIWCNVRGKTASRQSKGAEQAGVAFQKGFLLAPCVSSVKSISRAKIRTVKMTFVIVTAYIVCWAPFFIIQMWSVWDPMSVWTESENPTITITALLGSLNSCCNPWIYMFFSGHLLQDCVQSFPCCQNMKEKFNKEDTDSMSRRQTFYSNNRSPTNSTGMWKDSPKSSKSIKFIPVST
The test is described as follows: Vasopressin V1a receptor antagonist assay (FLIPR calcium, CHO-AVPR1a cells). The class given is cell-based. Here is the method: The purpose of this assay was to determine the inhibitory effect of synthesized compounds on the Vasopressin V1a receptor. The assay was performed in Chinese Hamster Ovary (CHO) cells expressing the human Arginine Vasopressin Receptor 1a (AVPR1a). Arginine Vasopressin (AVP) evokes an increase in intracellular calcium in CHO-AVPR1a cells which is measured in a fluorescence assay on the FLIPR^TETRA using calcium sensitive dyes. Test compounds were assessed for their ability to affect the magnitude of the response to AVP, with antagonists showing a concentration-dependent reduction in the AVP-mediated fluorescence. Compounds were tested in duplicate in a 10-point, 1:3 dilution series starting at a nominal concentration of 3 μM in the assay.
CHO-AVPR1a cells were maintained in routine culture in T175 Flasks at 37° C., 5% CO2. The growth medium consists of Ham's F12 media supplemented with 10% v/v fetal bovine serum, 1× non-essential amino acids, and 0.4 mg/ml Geneticin G418.
On day one, cells were harvested from T175 flasks when they are 80-90% confluent by first washing the cell monolayer with PBS and then dissociated using trypsin 0.05%/EDTA (3 mL for a T175 Flask). The flasks were incubated at room temperature until the cells detached. To the cell suspension, 10 ml of growth media was added and the cell density determined using the Vi-Cell automated cell counter. The cells were spun at 1000 rpm for 3 minutes, then the supernatant was carefully removed and discarded. The cell pellet was re-suspended at 6.0e^5 cells/ml in growth media. 25 μL of cells in growth media was dispensed into each well (15,000 cells per well) of a poly-D-lysine coated black, clear bottomed, 384-well plate. The plates were incubated at 37° C., 5% CO2 overnight.
At the start of each assay day, the potency of AVP was assessed and an EC80 concentration determined for subsequent compound profiling. Assays were performed using a two-step addition protocol on the FLIPR^TETRA; first addition of 5 μl of control or test compound at 10× final in assay buffer with 15 min incubation at 37° C., 5% CO2 followed by 10 μl of AVP at 6× final concentration in assay buffer. Changes in fluorescence were monitored for 3 min after both additions on the FLIPR^TETRA using 470-495 nm excitation and 515-575 nm emission wavelengths. The assay buffer consisted of HBSS (+Ca/+Mg) supplemented with 20 mM HEPES, and for the preparation of the AVP agonist only, 0.1% w/v bovine serum albumin. The assay was initiated by the removal of growth media from the cells and replacement with 45 μl of Calcium-6 dye (Molecular Devices) prepared at 1× in assay buffer. Cells were loaded with dye for 60-90 min at 37° C., 5% CO2 before initiation of the FLIPR^TETRA protocol. […] For compound profiling, test compounds were first serially diluted in DMSO (10-point curve, 1:3 dilutions) then diluted 33.3-fold in assay buffer prior to addition to the dye loaded cells on the FLIPR^TETRA. At the end of the incubation period, 10 μl of AVP in assay buffer containing 0.1% BSA was added at the previously determined EC80 concentration.
In-plate controls for the assay included balovaptan and PF-184563 concentration-response curves as reference V1a antagonists, and an AVP concentration-response curve to confirm the reproducibility of the EC80 used for the compound challenge.
Consider `CS(=O)(=O)N1CC2(CN(C(=O)N3CCOc4cc(Cl)ccc43)C2)C1` [10-1, (7-chloro-2,3-dihydro-4H-benzo[b][1,4]oxazin-4-yl)(6-(methylsulfonyl)-2,6-diazaspiro[3.3]heptan-2-yl)methanone], for which the IC50 was not below 1000 nM. Next, `CC1COc2cc(F)c(F)cc2N1C(=O)N1CC2(C1)CN(c1ncccn1)C2` (single isomer, unassigned) [19-1-A]: not below 1000 nM. Next, `Cc1ccc(N2CC3(CN(C(=O)N4CCOc5cc(Cl)ccc54)C3)C2)nc1F` [1-46]: less than 100 nM; `O=C(N1CC2(C1)CN(c1ncccc1F)C2)N1CCC(O)c2cc(Cl)ccc21` (centres unmarked) [13-4]: less than 100 nM. On to `Cn1ccnc1N1CC2(CN(C(=O)N3CCOc4cc(Cl)ccc43)C2)C1` [1-54], for which the IC50 was in the range of 100 to 500 nM.

Regarding `CC1COc2cc(F)ccc2N1C(=O)N1CC2(C1)CN(c1cnccn1)C2` (centres unmarked) [1-65], the IC50 is less than 100 nM. Next, `O=C(N1CC2(C1)CN(c1cncnc1)C2)N1CCOc2cc(Cl)ccc21` [1-17]: 100 to 500 nM. Next, `CC1(O)CCN(C(=O)N2CC3(C2)CN(c2ccc(F)cn2)C3)c2ccc(Cl)cc21` (centres unmarked) [15-1, (6-chloro-4-hydroxy-4-methyl-3,4-dihydroquinolin-1(2H)-yl)(6-(5-fluoropyridin-2-yl)-2,6-diazaspiro[3.3]heptan-2-yl)methanone]: less than 100 nM; `Cn1cc(N2CC3(CN(C(=O)N4CCOc5cc(Cl)ccc54)C3)C2)cn1` [1-11]: not below 1000 nM.

As to `CC1COc2cc(F)ccc2N1C(=O)N1CC2(C1)CN(c1ncccc1F)C2` (single isomer, unassigned) [1-67-B], the IC50 is not below 1000 nM.

Turning to `O=C(N1CC2(CN(Cc3cccnc3)C2)C1)N1CCOc2cc(Cl)ccc21` [2-3], the IC50 is not below 1000 nM. Next, `O=C(N1CC2(C1)CN(c1ccnnc1)C2)N1CCOc2cc(Cl)ccc21` [1-25]: not below 1000 nM; `CC1CN(C(=O)N2CC3(C2)CN(c2ccc(F)cn2)C3)c2ccc(Cl)cc2O1` (single isomer, unassigned) [9-3-B]: less than 100 nM; `O=C(N1CC2(C1)CN(c1ccc(F)cn1)C2)N1CCC(O)c2c1ccc(Cl)c2F` (single isomer, unassigned) [13-5-B]: less than 100 nM.

One may read the IC50 as the point on the concentration scale where inhibition reaches its midpoint.
